Laboratory results published in PubChem BioAssay AID588390 (Sanford-Burnham Center for Chemical Genomics, 2011).
Active and inactive are the calls of the source. The rule behind the calls is not given here.

Target: Ubiquitin-conjugating enzyme E2 N (Homo sapiens) (UniProt P61088)
Test: potency of analogues against UBC13 chain formation – biochemical, TR-FRET, set 2, SAR follow-up (AID 588390)
Details: UBC13 polyubiquitination

Ubiquitin-conjugating enzyme E2 N (Homo sapiens), sequence (P61088 whole entry, looked up): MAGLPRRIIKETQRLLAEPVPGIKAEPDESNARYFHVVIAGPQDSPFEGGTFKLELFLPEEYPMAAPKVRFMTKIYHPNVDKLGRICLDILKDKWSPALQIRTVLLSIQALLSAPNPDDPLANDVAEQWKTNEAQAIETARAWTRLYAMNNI

SMILES	IC50
Cc1ccc(C)c(N2CCN(CCCNC(=O)C3CCCN(c4ncnc5c4nc4n5CCCCC4)C3)CC2)c1 (configuration not stated)	9.81 µM
Cc1cccc(N2CCN(CCCNC(=O)C3CCCN(c4ncnc5c4nc4n5CCCCC4)C3)CC2C)c1 (configuration not stated)	inactive
O=C(NCCCN1CCN(c2ccccc2)CC1)C1CCCN(c2ncnc3c2nc2n3CCCCC2)C1 (configuration not stated)	3.3 µM
CC1(C)Cc2c(sc(NC(=O)C(=O)NCCN3CCOCC3)c2C(N)=O)CO1	1.34 µM
COC(=O)c1c(NC(=O)C(=O)NCC2CCCO2)sc2c1CC(C)(C)OC2 (configuration not stated)	4.25 µM
O=C(NCCCN1CCN(c2ccc(F)cc2)CC1)C1CCCN(c2ncnc3c2nc2n3CCCCC2)C1 (configuration not stated)	2.91 µM
O=C(C1CCN(c2ncnc3c2nc2n3CCCCC2)CC1)N1CCN(c2ncccn2)CC1	> 100 µM (inactive)
O=C(c1ccco1)N1CCN(C(=O)C2CCN(c3ncnc4c3nc3n4CCCCC3)CC2)CC1	> 100 µM (inactive)
CC1(C)Cc2c(sc(NC(=O)C(=O)N3CCCC3)c2C(N)=O)CO1	0.58 µM
CC1(C)Cc2c(sc(NC(=O)C(=O)NCC3CCCO3)c2C(N)=O)CO1 (configuration not stated)	0.63 µM
O=C(C1CCN(c2ncnc3c2nc2n3CCCCC2)CC1)N1CCN(c2ccccn2)CC1	inactive
O=C(C1CCN(c2ncnc3c2nc2n3CCCCC2)CC1)N1CCN(Cc2ccccc2)CC1	2.75 µM
CC1(C)Cc2c(sc(NC(=O)C(=O)NCC3CCCO3)c2C(=O)O)CO1 (configuration not stated)	inactive

Second part, the compound after the results:

IC50	SMILES
> 100 µM (inactive)	O=C(CN1CCC(n2cnc3cc(C(F)(F)F)ccc32)CC1)Nc1ccc2c(c1)OCCO2
4 µM	CCOc1ccccc1NC(=O)CN1CCC(n2cnc3cc(F)ccc32)CC1
> 100 µM (inactive)	Cc1cccc(NC(=O)CN2CCC(n3cnc4cc(F)ccc43)CC2)c1C
inactive	COc1ccc(OC)c(NC(=O)CN2CCC(n3c(C)nc4cc(F)ccc43)CC2)c1
> 100 µM (inactive)	Cc1nc2cc(F)ccc2n1C1CCN(CC(=O)Nc2ccccc2)CC1
> 100 µM (inactive)	Cc1nc2ccccc2n1C1CCN(CC(=O)Nc2ccccc2Oc2ccccc2)CC1
> 100 µM (inactive)	O=C(CN1CCC(n2c(C(F)(F)F)nc3cc(F)ccc32)CC1)Nc1ccc2c(c1)OCO2
> 100 µM (inactive)	O=C(CN1CCC(n2cnc3cc(F)ccc32)CC1)Nc1cccc(C(F)(F)F)c1
inactive	COc1ccc(OC)c(NC(=O)CN2CCC(n3cnc4cc(F)ccc43)CC2)c1
inactive	COc1ccccc1N1CCN(CCCNC(=O)C2CCCN(c3ncnc4c3nc3n4CCCCC3)C2)CC1 (configuration not stated)
> 100 µM (inactive)	COc1ccc(NC(=O)CN2CCC(n3c(C)nc4cc(F)ccc43)CC2)c(OC)c1
inactive	O=C(C1CCN(c2ncnc3c2nc2n3CCCCC2)CC1)N1CCN(c2ccc(F)cc2)CC1
> 100 µM (inactive)	CCOc1ccc(NC(=O)CN2CCC(n3cnc4cc(F)ccc43)CC2)cc1
inactive	O=C(CN1CCC(n2cnc3cc(F)ccc32)CC1)Nc1ccccc1Br
